Experimental data published in article PMC11011327 (International Journal of Molecular Sciences, 2024).
Where two headings read alike, the source gives them in different places. Residues, ends and D or L forms follow the SMILES beside them. No end group written: not given here.

Legend:
Tag7 = target: T1, Tag7 (Homo sapiens, UniProt O75594); test: Microscale thermophoresis, binding to fluorescent-labeled Tag7; conditions: ratio to previously shown Kd of Tag7–sTNFR1 (42.2)
T1 construct: His tag (inferred from the pQE-31 vector only); made in house; host or cells: E. coli M15 (pREP4)
T1 sequence (O75594 22-196): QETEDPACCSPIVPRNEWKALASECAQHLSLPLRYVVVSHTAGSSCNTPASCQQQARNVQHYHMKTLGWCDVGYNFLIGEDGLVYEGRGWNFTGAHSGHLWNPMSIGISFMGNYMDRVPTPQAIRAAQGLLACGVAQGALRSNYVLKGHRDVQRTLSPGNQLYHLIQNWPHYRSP
Source text: The calculated Kd indicates a high affinity among the studied complexes (Table 1).
Graphs are represented as Fnorm [‰] against ligand concentration. Data represent three independent experiments and were fitted to a Kd binding model assuming a 1:1 binding stoichiometry.
Hsp70 and TNF-α were purified with Ni-NTA Agarose (Thermo Fisher Scientific, Waltham, MA, USA) in accordance with the manufacturer’s instructions.
The samples were transferred to glass capillaries (Monolith NT Capillaries) and analyzed by microscale thermophoresis on a Nano-Temperature Monolith NT 115 device (30% IR laser power). The signal quality was monitored using a NanoTemper Monolith device to detect possible autofluorescence of the ligand, aggregation or changes in the rate of photobleaching. The experiments were carried out in at least three repetitions and processed using affinity analysis software (MO Control v.1.6.1, NanoTemper Technologies GmbH, München, Germany).

[1] = system: TNF-induced cytotoxicity, L929 cells; test: Inhibition of cytotoxic activity of TNF on L929 cells; assay type: cell-based; conditions: TNF 1 nM, peptide 10 nM, n = 5, TNF preincubated with TNFR1 peptide / cells preincubated with TNFL; for apoptotic cytotoxic activity of TNF in the presence of peptide: 3 h; for necroptotic cytotoxic activity of TNF in the presence of peptide: 20 h
Procedure: (§1) Next, we investigated how this interaction affects the cytotoxic activity of TNFR1 ligands. […] Cell apoptosis is a fast process of several hours. During necroptosis, cell death processes take place after a few dozen hours. Taking into account this ability of TNFR1 to participate in the induction of alternative cytotoxic pathways that develop at different time intervals, cytotoxic activity was determined after 3 h and after 20 h (Figure 4). […] It can be assumed that the inhibition of the cytotoxic effect of the ligands is associated with the competition of a 12-membered peptide with the cell surface receptor on for binding to the ligands.

[2] = system: Tag7–Hsp70-induced cytotoxicity, L929 cells; test: Inhibition of cytotoxic activity of Tag7–Hsp70 complex on L929 cells; assay type: cell-based; conditions: Tag7–Hsp70 1 nM, peptide 10 nM, n = 5, complex preincubated with TNFR1 peptide / cells preincubated with TNFL; for apoptotic cytotoxic activity of Tag7–Hsp70 complex in the presence of peptide: 3 h; for necroptotic cytotoxic activity of Tag7–Hsp70 complex in the presence of peptide: 20 h
Procedure: as §1

L929 cells [3] = system: L929 cells
Procedure: (§2) The TNFR1 antibodies were added to the sum of TNFL and TNFS peptides prior to incubation (a). Cytotoxic activity of the sum of TNFL and TNFS peptides on L929 cells after 3 (b) and 20 (c) hours in the presence of caspase 3 and 8 inhibitors (5 μM) and necrostatin1 (5 μM) is shown. (d) Cytotoxic activity of the sum of TNFL and TNFs peptides on L929 cells after 20 h of incubation in the presence of calpains inhibitors (10 μM), cathepsins inhibitors (10 μM) and antioxidant (1 μM). n = 5 for each point, (* p-value < 0.05).
(§3) L929 cells were cultured in DMEM with 2 mm L-glutamine and 10% FCS (Invitrogen, Carlsbad, CA, USA). This cell line was obtained from the cell line collection of the N. N. Blokhin National Medical Research Center of Oncology of the Ministry of Health of Russia.
(§4) For cytotoxicity tests, target cells were cultured in 96-well plates (3 × 10^4 cells per well), and cytotoxic complexes were added (1 nM). Cytotoxicity was measured after 20 h of incubation by Cytotox 96 analysis kit (Promega, Madison, WI, USA) in accordance with the manufacturer’s protocol. […]

[4] = system: tumor cells / cancer cells; conditions: ref [33]; cited from earlier work
Source text: The amino acid sequence of Tag7 seemingly lacks a peptide fragment interacting with the second site of the receptor.

tumor = conditions: ref [33]; cited from earlier work
Source text: Modifications of the TNF molecule are used to solve it.

sTNFR1 = conditions: read-out: Kd value for the Tag7–sTNFR1 complex; "Previously, we showed"; cited from earlier work
L929 cells [5] = test: Cytotoxic activity of TNF peptides on L929 cells; conditions: 20 h, n = 5, Cytotox 96 kit
Procedure: as §2, §3, §4

Compound | Kd of Tag7–TNFR1 peptide complex compared with Kd of Tag7–sTNFR1 complex (Tag7) | apoptotic cytotoxic activity of TNF in the presence of peptide [1] | necroptotic cytotoxic activity of TNF in the presence of peptide [1] | apoptotic cytotoxic activity of Tag7–Hsp70 complex in the presence of peptide [2] | necroptotic cytotoxic activity of Tag7–Hsp70 complex in the presence of peptide [2] | cytotoxic activity (L929 cells [3]) | killing of tumor cells [4] | inhibition of tumor growth / metastasis (tumor) | Kd (sTNFR1) | cytotoxic activity (L929 cells [5])
CC(C)C[C@H](NC(=O)[C@H](CS)NC(=O)[C@H](Cc1c[nH]cn1)NC(=O)[C@H](CCCNC(=N)N)NC(=O)[C@H](CC(C)C)NC(=O)[C@H](Cc1c[nH]cn1)NC(=O)[C@@H](N)CC(N)=O)C(=O)N[C@@H](CO)C(=O)N[C@@H](CS)C(=O)N[C@@H](CO)C(=O)N[C@@H](CCCCN)C(=O)N[C@@H](CS)C(=O)O [TNFR1 peptide] (H-NHLRHCLSCSKC-OH) | approximately 10 times lower | completely lose both apoptotic and necroptotic activity | completely lose both apoptotic and necroptotic activity | completely lose both apoptotic and necroptotic activity | completely lose both apoptotic and necroptotic activity |  |  |  |  | 
NPQAEGQLQWLNRRAN [TNFL peptide] |  | Both apoptosis (3 h) and necroptosis (20 h) were inhibited | Both apoptosis (3 h) and necroptosis (20 h) were inhibited | Both apoptosis (3 h) and necroptosis (20 h) were inhibited | Both apoptosis (3 h) and necroptosis (20 h) were inhibited | no cytotoxic effect |  |  |  | 
TNF peptide (aa. 150–170): TNF peptide (aa. 150–170), capable of killing tumor cells and inhibiting tumor growth (VLLTHTISRIAVSYQTKVNLL; UniProt P01375 150-170, looked up, fragment) |  |  |  |  |  |  | capable of killing tumor cells | inhibiting tumor growth |  | 
Tag7: recombinant human Tag7, innate immunity protein, TNFR1 ligand |  |  |  |  |  |  |  |  | 42.2 nM | 
YVLLTH [TNFS peptide] |  | does not inhibit apoptosis nor necroptosis | does not inhibit apoptosis nor necroptosis | does not inhibit apoptosis nor necroptosis | does not inhibit apoptosis nor necroptosis |  |  |  |  | no cytotoxic effect
